In assay [1] the test system is Human non-small cell lung cancer NCI-H460 cells. As to the kind of experiment: Inhibitory effect on growth of PTX-resistant tumor cell line, parent line (in vitro). It is filed as cell-based. Conditions: 96 hours culture, WST-8. On the procedure:
Each compound of the present invention was studied for its effect on the growth of a tumor cell line having a PTX resistance mechanism different from that attributed to the high expression of P-glycoprotein. Human non-small cell lung cancer NCI-H460 cells were exposed to 1 nM paclitaxel (PTX) and 10 μM verapamil at the same time. Only the PTX concentration was increased to 2, 3, 4, 5, and 7 nM in order over approximately 6 months to establish PTX-resistant H460/PV2-7 cells (PV2-7). […] As for the PTX resistance mechanism different from that attributed to the high expression of P-glycoprotein, an isotype called Class III β-tubulin (TUBB3), which is one isotype of […], has been reported to be highly expressed in PTX-resistant established lines in vitro or in clinical samples from patients having resistance to PTX therapy.
The PV2-7 cells and the parent line NCI-H460 cells were suspended in a medium and inoculated at a cell density of 1000 cells/50 μL/well to a 96-well plate. After overnight culture, each compound diluted 2-fold (final concentration) was added thereto at a concentration of 50 μL/well, and the cells were cultured for 96 hours. After the completion of culture, WST-8 (Seikagaku Corp.) was added thereto at a concentration of 10 μL/well, and the cells were cultured at 37° C. for approximately 1 hour under 5% CO2 conditions, followed by measurement of absorbance at 450 nm.

Assay [2] has as its system human colorectal cancer HCT116 cells. As to the kind of experiment: Inhibitory effect on growth of human cancer cells (in vitro), WST-8. It is filed as cell-based. Conditions: Homo sapiens, HCT-116, 96 h, 96 hours culture. The method, boiled down:
(§1)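 Cells seeded at 1000 cells/well in RPMI1640 with 10% FBS, compounds added after overnight culture, then 96 h exposure. Viability by WST-8, about 1 h at 37 °C, 5% CO2, absorbance read at 450 nm.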
On the technique in general: Tetrazolium assays rely on reduction of a dye to a coloured formazan, in cell work by metabolically active cells.

Assay [3] has as its system human non-small cell lung cancer A549 cells. The assay is described as above. It is filed as cell-based. Conditions: Homo sapiens, A549, 96 h, 96 hours culture. In short, it runs like this: as §1
Assay [4] deals with human colorectal cancer HT-29 cells. The description is as above. It is filed as cell-based. As to conditions: Homo sapiens, HT-29, 96 h, 96 hours culture, read-out: IC50 (nM) HT29. In short, it runs like this:
as §1

Assay [5] has as its system Human uterus cancer MES-SA cells. Put plainly: Inhibitory effect on growth of multidrug-resistant cell line, parent line (in vitro). It is filed as cell-based. Conditions: 48 hours culture, WST-8. The text has this: (§2) Each compound of the present invention was studied for its effect on the growth of a multidrug-resistant cell line. A drug efflux pump called P-glycoprotein is well known to be involved in the drug resistance mechanism of the multidrug-resistant line MES-SA/Dx5 used in this experiment. Accordingly, in this experiment, paclitaxel and vincristine, which are proven substrates of P-glycoprotein, were used as control drugs. Human uterus cancer MES-SA cells and their multidrug-resistant line MES-SA/Dx5 cells were suspended in a medium and inoculated at a cell density of 2000 cells/50 μL/well to a 96-well plate. After overnight culture, each test sample diluted with a medium was added thereto at a concentration of 50 μL/well, and the cells were further cultured for 48 hours. After the completion of culture, WST-8 was added thereto at a concentration of 10 μL/well, and the cells were cultured at 37° C. for approximately 1 hour under 5% CO2 conditions, followed by measurement of absorbance at a wavelength of 450 nm. […] The resistance rate was calculated according to the following expression:
(§3) Resistance rate=IC50 value (MES-SA/Dx5)/IC50 value (MES-SA)

In assay [6] the test system is human lung cancer NCI-H460 xenograft tumor. Put plainly: Antitumor effect on growth of human lung cancer NCI-H460 xenograft tumor (in vivo). Further details: species or system BALB/c nude mice. As to conditions: Mus musculus, NCI-H460, iv, 528 h, tail vein, excised tumor weight Day 22, read-out: Inhibition Rate (%). Here is the method: Each compound of the present invention was studied for its in vivo antitumor effect using human lung cancer NCI-H460 cell-transplanted mice. An NCI-H460 cell suspension containing 2×10^6 cells was subcutaneously transplanted in an amount of 0.1 mL/mouse to the left groin areas of 6-week-old male BALB/c nude mice. The mice were further raised for approximately 1 week to 10 days and divided into groups (4 mice per group) having equal estimated tumor volumes at the point in time when the tumor size reached approximately 100 to 200 mm^3 (Day 1). Each administration sample was administered at a dose of 10 mL/kg into the tail vein of the mice. The dose and administration schedule of each compound were as described in Table 3. At Day 22, tumor was excised from each mouse. The tumor growth inhibition rate (IR: Inhibition Rate) was calculated from the weight of the excised tumor according to the expression shown below. The Dunnett's test was used in the significant difference test.
Tumor growth inhibition rate (Inhibition Rate, %)=(1−(Excised tumor weight of the administration group)/(Excised tumor weight of the control group))×100
For orientation: A xenograft is tissue or cells of one species grown in another, often human tumour cells in immunodeficient mice.

Assay [7] relates to multidrug-resistant line MES-SA/Dx5 cells. As to the kind of experiment: Inhibitory effect on growth of multidrug-resistant cell line (in vitro). It is filed as cell-based, human. As to conditions: for IC50: Homo sapiens, MES-SA/Dx5 cells, 48 hours culture, WST-8; for Resistance rate: IC50 value (MES-SA/Dx5)/IC50 value (MES-SA).
From the text: as §2, §3

The next assay concerns PV2-7 xenograft tumor. Put plainly: Antitumor effect on growth of PV2-7 xenograft tumor (in vivo). Further details: species or system BALB/c nude mice. As to conditions: tail vein, once a week, three times in total (Days 1, 8, and 15); FIG. 5.

As usually defined, the IC50 is the concentration that inhibits the measured activity by half.

Procedure for PV2-7 xenograft tumor: The mice were further raised for approximately 1 week to 10 days and divided into groups (4 or 5 mice per group) having equal estimated tumor volumes at the point in time when the tumor size reached approximately 100 to 200 mm^3 (Day 1). Each administration sample was administered at a dose of 10 mL/kg into the tail vein of the mice. In an administration schedule, each sample was administered once a week, three times in total (Days 1, 8, and 15).

Regarding `CC(=O)O[C@@]12CO[C@@H]1C[C@H](O)[C@@]1(C)C(=O)[C@H](O)C3=C(C)[C@@H](OC(=O)[C@H](O)[C@@H](NC(=O)OC(C)(C)C)c4ccccc4)C[C@@](O)([C@@H](OC(=O)c4ccccc4)[C@H]21)C3(C)C` [Docetaxel, docetaxel], in assay [1], the half-inhibitory concentration (IC50) is 1.5 nM.
`Cc1c(-c2nnn(CCO)n2)[nH]c(CO)c1C(=O)c1cccc(Br)c1` [Compound 121, (3-bromophenyl)(5-(2-(2-hydroxyethyl)-2H-tetrazol-5-yl)-2-(hydroxymethyl)-4-methyl-1H-pyrrol-3-yl)methanone]: the IC50 in assay [2] was 43.5 nM; in assay [3] it was 122 nM; in assay [4], 43.8 nM; in assay [5], 49.8 nM; in assay [7] it was 88.4 nM; in assay [1], 76.2 nM. Moreover, the inhibition in vivo at 60 mg/kg in assay [6] (60 mg/kg, Days 1, 3, 5, 8, 10, 12, 15, 17, 19) stood at 60.6%. The inhibition in vivo at 120 mg/kg in assay [6] (120 mg/kg, Days 1, 8, 15) was found to be 75.5%. This compound registered a Resistance rate in assay [7] of 1.8.
As to `CNC(=O)c1[nH]c(-c2nnn(CCO)n2)c(C)c1C(=O)c1cccc(Br)c1` [Compound 142, 3-(3-bromobenzoyl)-5-(2-(2-hydroxyethyl)-2H-tetrazol-5-yl)-N,4-dimethyl-1H-pyrrole-2-carboxamide], the concentration for half-maximal inhibition (IC50) in assay [2] was determined as 194 nM; in assay [3], 257 nM; in assay [4], 176 nM; in assay [5], 238 nM; in assay [7], 656 nM; in assay [1] it was 374 nM. The inhibition in vivo at 140 mg/kg in assay [6] (140 mg/kg, Days 1, 8, 15) is 73.8%. Moreover, the Resistance rate in assay [7] was 2.8.
For the compound `CC(=O)O[C@H]1C(=O)[C@@]2(C)[C@H]([C@H](OC(=O)c3ccccc3)[C@]3(O)C[C@H](OC(=O)[C@H](O)[C@@H](NC(=O)c4ccccc4)c4ccccc4)C(C)=C1C3(C)C)[C@]1(OC(C)=O)CO[C@@H]1C[C@@H]2O` [Paclitaxel, paclitaxel, reference compound], the half-inhibitory concentration (IC50) in assay [5] is 15.2 nM; in assay [7] it was 3700 nM; in assay [1] it was 3.5 nM. The “antitumor effect on PV2-7 cell-transplanted mice” value in the assay with PV2-7 xenograft tumor is reported as “hardly effective”. The Resistance rate in assay [7] is reported as 243.3.
For the compound `Cc1c(-c2nnn(CCO)n2)[nH]c(C(C)O)c1C(=O)c1cccc(Br)c1` (stereo not drawn) [Compound 123, (3-bromophenyl)(2-(1-hydroxyethyl)-5-(2-(2-hydroxyethyl)-2H-tetrazol-5-yl)-4-methyl-1H-pyrrol-3-yl)methanone], the IC50 in assay [2] was 46.1 nM; in assay [3], 326 nM; in assay [4] it was 39.5 nM; in assay [5] it was 63.3 nM; in assay [7] it was 135 nM; in assay [1] it was 68.8 nM. The inhibition in vivo at 50 mg/kg in assay [6] (50 mg/kg, Days 1, 3, 5, 8, 10, 12, 15, 17, 19) was 58.2%. The inhibition in vivo at 100 mg/kg in assay [6] (100 mg/kg, Days 1, 5, 9) was 56.5%. The Resistance rate in assay [7] stood at 2.1.
As to `CO[C@H]1C(=O)[C@]2(C)[C@@H](OC)C[C@H]3OC[C@@]3(OC(C)=O)[C@H]2[C@H](OC(=O)c2ccccc2)[C@]2(O)C[C@H](OC(=O)[C@H](O)[C@@H](NC(=O)OC(C)(C)C)c3ccccc3)C(C)=C1C2(C)C` [Cabazitaxel, cabazitaxel], the concentration for half-maximal inhibition (IC50) in assay [1] is 1.3 nM.

The values are drawn from patent US20140343017A1, “PYRROLE COMPOUND” (Kabushiki Kaisha Yakult Honsha, priority 2012, published 2014).
